Laboratory results as given in US10647680B2, “Urea compound, preparation method therefor and medical use thereof” (Ancureall Pharmaceutical (Shanghai) Co., Ltd., priority 2016, dated 2020).

What was measured:
[1] = test system: RAMOS (positive expression of Brutons tyrosine protein kinase); experiment: In vitro growth inhibition (GI50), RAMOS; format: cell-based; details: Homo sapiens, Cell lines of leukemia, read-out: GI 50 Ramos BTK
[2] = test system: MV4-11 (FLT3 ITD+/+ mutant type); experiment: In vitro growth inhibition (GI50), MV4-11; format: cell-based, human; details: Homo sapiens, MV4-11; Cell lines of leukemia; read-out: GI 50 MV4-11 FLT3 (ITD +/+)
[3] = test system: MOLM-13 (FLT3 ITD+/− mutant type); experiment: In vitro growth inhibition (GI50), MOLM-13; format: cell-based, human; details: Homo sapiens, MOLM-13; Cell lines of leukemia; read-out: GI 50 MOLM-13 FLT3 (ITD+/−)
[4] = test system: OCI-AML3 (NPMc+ mutant type); experiment: In vitro growth inhibition (GI50), OCI-AML3; format: cell-based; details: Homo sapiens, OCI-AML-3; Cell lines of leukemia; read-out: GI 50 OCI- AML3 NPMc+
[5] = test system: Kasumi-1 (c-Kit N822K mutant type); experiment: In vitro growth inhibition (GI50), Kasumi-1; format: cell-based; details: Homo sapiens, Cell lines of leukemia, read-out: GI 50 Kasumi-1 Kit (N822K)
Summary of the method: (§1)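 Cells in RPMI1640 with 10% FBS, seeded at 5–10×10^4 cells/mL, exposed next day to compound at 5,000 nM down to 0.01 nM (2- or 10-fold dilutions, ≤1% solvent) for 3–5 days at 37 °C. CCK8 absorbance at 450 nm, growth rate relative to pre-treatment and solvent controls, GI50 from concentration–growth curve.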

[6] = test system: U937 (FLT3 wild-type); experiment: In vitro growth inhibition (GI50), U937; format: cell-based; details: Homo sapiens, U-937; Cell lines of leukemia; read-out: GI 50 U937 FLT 3(WT)
[7] = test system: K562 (FLT3 negative expression, positive expression of BCR-ABL fusion protein); experiment: In vitro growth inhibition (GI50), K562; format: cell-based; details: Homo sapiens, Cell lines of leukemia, read-out: GI 50 K562 BCR-ABL
[8] = test system: KG-1 (expressing FGFR1OP2-FGFR1 fusion protein); experiment: In vitro growth inhibition (GI50), KG-1; format: cell-based; details: Homo sapiens; Cell lines of leukemia; read-out: GI 50 KG-1 FGFR1OP 2-FGFR1
[9] = test system: HL-60 (FLT3 wild type); experiment: In vitro growth inhibition (GI50), HL-60; format: cell-based; details: Homo sapiens, Cell lines of leukemia, read-out: GI 50 HL60 FLT3 (WT)
Summary of the method: as §1

[10] = test system: RS4; 11 (FLT3 wild type); experiment: In vitro growth inhibition (GI50), RS4; 11; format: cell-based, human; details: Homo sapiens, RS4-11; Cell lines of leukemia; read-out: GI 50 RS4: 11 FLT3 (WT)

GI50 [1] [nM] | GI50 [2] [nM] | GI50 [3] [nM] | GI50 [4] [nM] | GI50 [6] [nM] | GI50 [7] [nM] | GI50 [9] [nM] | GI50 [10] [nM] | Compound | GI50 [5] [nM] | GI50 [8] [nM]
> 1000 | 10 to 100 | 10 to 100 | > 1000 | > 1000 | > 1000 | > 1000 | > 1000 | Cc1ccc(-n2nc(C(C)(C)C)cc2NC(=O)Nc2ccc(-n3cnc4ccccc43)cc2)cc1 [Compound 105, 1-(4-benzimidazol-1-yl-phenyl)-3-(5-tert-butyl-2-p-tolyl-2H-pyrazol-3-yl)-urea] | > 1000 | > 1000
100 to 1000 | 0.1 to 1 | 0.1 to 1 | > 1000 | 100 to 1000 | > 1000 | 100 to 1000 | > 1000 | CCCCN(CCCC)CCCOc1ccc2c(c1)ncn2-c1ccc(NC(=O)Nc2cc(C(C)(C)C)n[nH]2)cc1 [Compound 82, 1-(5-tert-butyl-2H-pyrazol-3-yl)-3-{4-[5-(3-dibutylaminopropoxy)-benzimidazol-1-yl]-phenyl}-urea] | > 1000 | > 1000
100 to 1000 | 0.1 to 1 | 0.1 to 1 | > 1000 | > 1000 | 100 to 1000 | > 1000 | 100 to 1000 | COc1cc2ncn(-c3ccc(NC(=O)Nc4cc(C(C)(C)C)on4)cc3)c2cc1OC [Compound 31, 1-(5-tert-butyl-isoxazol-3-yl)-3-[4-(5,6-dimethoxyl-benzimidazol-1-yl)-phenyl]-urea] | 100 to 1000 | > 1000
> 1000 | 10 to 100 | 10 to 100 | > 1000 | > 1000 | > 1000 | > 1000 | > 1000 | O=C(Nc1ccc(-n2cnc3ccccc32)cc1)Nc1cc(C2CC2)n[nH]1 [Compound 66, 1-(4-benzimidazol-1-yl-phenyl)-3-(5-cyclopropyl-2H-pyrazol-3-yl)-urea] | > 1000 | > 1000
> 1000 | > 1000 | > 1000 | > 1000 | > 1000 | > 1000 | > 1000 | > 1000 | O=C(Nc1ccc(-n2cnc3ccccc32)cc1)Nc1nncs1 [Compound 62, 1-(4-benzimidazol-1-yl-phenyl)-3-[1,3,4]thiadiazol-2-yl-urea] | > 1000 | > 1000
> 1000 | 100 to 1000 | 100 to 1000 | > 1000 | > 1000 | > 1000 | > 1000 | > 1000 | Cc1noc(NC(=O)Nc2ccc(-n3cnc4ccccc43)cc2)c1C [Compound 131, 1-(4-benzimidazol-1-yl-phenyl)-3-(3,4-dimethyl-isoxazol-5-yl)-urea] | > 1000 | > 1000
> 1000 | 100 to 1000 | 100 to 1000 | > 1000 | > 1000 | > 1000 | > 1000 | > 1000 | CNC(=O)c1cc(Oc2ccc3c(c2)ncn3-c2ccc(NC(=O)n3nc(C(C)(C)C)cc3N)cc2)ccn1 [Compound 127, 4-(1-{4-[(5-amino-3-tert-butyl-pyrazol-1-carbonyl)-amino]-phenyl}-1H-benzimidazol-5-yloxy)-pyridin-2-carboxylic acid methylamide] | > 1000 | > 1000
> 1000 | 0.1 to 1 | 0.1 to 1 | > 1000 | > 1000 | > 1000 | > 1000 | > 1000 | COc1ccc2ncn(-c3ccc(NC(=O)Nc4cc(C(C)(C)C)on4)cc3)c2c1 [Compound 25, 1-(5-tert-butyl-isoxazol-3-yl)-3-[4-(6-methoxyl-benzimidazol-1-yl)-phenyl]-urea] | > 1000 | > 1000
> 1000 | 1 to 10 | 1 to 10 | > 1000 | > 1000 | > 1000 | > 1000 | > 1000 | CC(C)(C)c1cc(N)n(C(=O)Nc2ccc(-n3cnc4cc(OCCN5CCOCC5)ccc43)cc2)n1 [Compound 119, 5-amino-3-tert-butyl-pyrazol-1-carboxylic acid {4-[5-(2-morpholin-4-yl-ethoxyl)-benzimidazol-1-yl]-phenyl}-amide] | > 1000 | > 1000
> 1000 | 0.1 to 1 | 0.1 to 1 | > 1000 | > 1000 | > 1000 | > 1000 | > 1000 | CC1(COc2ccc3c(c2)ncn3-c2ccc(NC(=O)Nc3cc(C(C)(C)C)n[nH]3)cc2)COC1 [Compound 85, 1-(5-tert-butyl-2H-pyrazol-3-yl)-3-{4-[5-(3-methyl-oxetane-3-ylmethoxy)-benzimidazol-1-yl]-phenyl]urea] | > 1000 | > 1000
> 1000 | 100 to 1000 | 100 to 1000 | > 1000 | > 1000 | > 1000 | > 1000 | > 1000 | O=C(Nc1ccc(-n2cnc3ccccc32)cc1)Nc1cc(-c2ccccc2)[nH]n1 [Compound 65, 1-(4-benzimidazol-1-yl-phenyl)-3-(5-phenyl-1H-pyrazol-3-yl)-urea] | > 1000 | > 1000
> 1000 | 0.1 to 1 | 0.1 to 1 | > 1000 | > 1000 | > 1000 | > 1000 | > 1000 | CCOc1ccc2c(c1)ncn2-c1ccc(NC(=O)Nc2cc(C(C)(C)C)n[nH]2)cc1 [Compound 72, 1-(5-tert-butyl-2H-pyrazol-3-yl)-3-[4-(5-ethoxyl-benzimidazol-1-yl)-phenyl]-urea] | > 1000 | > 1000
> 1000 | 10 to 100 | 10 to 100 | > 1000 | > 1000 | > 1000 | > 1000 | > 1000 | CC(C)(C)c1cc(NC(=O)Nc2ccc(-n3cnc4ncccc43)cc2)no1 [Compound 56, 1-(5-tert-butyl-isoxazol-3-yl)-3-(4-imidazo[4,5-b]pyridin-1-yl-phenyl)-urea] | > 1000 | 100 to 1000
> 1000 | 1 to 10 | 1 to 10 | 100 to 1000 | > 1000 | > 1000 | > 1000 | > 1000 | COCCOc1ccc2c(c1)ncn2-c1ccc(NC(=O)n2nc(C(C)(C)C)cc2N)cc1 [Compound 120, 5-amino-3-tert-butyl-pyrazol-1-carboxylic acid {4-[5-(2-methoxyl-ethoxyl)-benzimidazol-1-yl]-phenyl}-amide] | > 1000 | 100 to 1000
> 1000 | 0.1 to 1 | 0.1 to 1 | > 1000 | > 1000 | > 1000 | > 1000 | > 1000 | CC(C)(C)c1cc(NC(=O)Nc2ccc(-n3cnc4cc(OC(F)(F)F)ccc43)cc2)[nH]n1 [Compound 84, 1-(5-tert-butyl-2H-pyrazol-3-yl)-3-[4-(5-trifluoromethoxy-benzimidazol-1-yl)-phenyl]-urea] | > 1000 | > 1000
> 1000 | 100 to 1000 | 100 to 1000 | > 1000 | > 1000 | > 1000 | > 1000 | > 1000 | CC(C)(C)c1cc(NC(=O)Nc2ccc(-n3ncc4cccc(F)c43)cc2)no1 [Compound 47, 1-(5-tert-butyl-isoxazol-3-yl)-3-[4-(7-fluoro-indazol-1-yl)-phenyl]-urea] | > 1000 | > 1000
> 1000 | 10 to 100 | 10 to 100 | > 1000 | > 1000 | > 1000 | > 1000 | > 1000 | COCCOc1ccc2ncn(-c3ccc(NC(=O)n4nc(C(C)(C)C)cc4N)cc3)c2c1 [Compound 128, 5-amino-3-tert-butyl-pyrazol-1-carboxylic acid {4-[6-(2-methoxyl-ethoxyl)-benzimidazol-1-yl]-phenyl}-amide] | > 1000 | > 1000
